{
  "source": "paper PMC12692291",
  "about": "“Development and In Vitro Evaluation of [^64Cu]Cu-NOTA-TP-PSMA, a Novel Radiotheranostic Agent Against Prostate Cancer” (International Journal of Molecular Sciences, 2025)",
  "key": {"[1]": {"test_system": "HEK-293 cells", "assay": "Efflux (retention) study in HEK-293 cells", "type": "cell-based, human", "conditions": "Table S3 second part (HEK-293)", "experimental": "(§1) Efflux studies were conducted by incubating the cells with the compound for an initial period of 1 h, after which the incubation medium was replaced with fresh, compound-free medium. The retained intracellular radioactivity was then measured at various time points up to 24 h and expressed as the percentage of retention relative to the 0-h time point, defined as the time immediately after medium replacement."}, "[2]": {"test_system": "LNCaP cells", "assay": "Efflux (retention) study in LNCaP cells", "type": "cell-based", "conditions": "Table S3 first part (LNCaP)", "experimental": "as §1"}, "[3]": {"test_system": "HEK-293 cells", "assay": "PrestoBlue cytotoxicity assay in HEK-293 cells", "type": "cell-based, human", "conditions": "consistently across time points; read-out: EC50 in HEK-293 cells", "experimental": "(§2) The cytotoxicity of compounds 1–3, ^natCu-NOTA-TP-PSMA, and cisplatin (platinum-based drug) were assessed with PrestoBlue, a resazurin-based method to assess mitochondrial function in LNCaP and HEK-293 cells at 24, 48, and 72 h. Effective concentration (EC50) values summarized in Table 3 were calculated from the dose–response curves of each compound (Figure S7).\n(§3) Cytotoxicity was evaluated using a resazurin-based assay (PrestoBlue) in 96-well plates. LNCaP (15,000 cells/well) and HEK-293 (10,000 cells/well) were seeded and incubated for 72 h. Cells were then treated with serial dilutions of [^64Cu]Cu-NOTA-TP-PSMA and controls for 24, 48, or 72 h. After treatment, cells were rinsed with PBS and incubated with PrestoBlue reagent for 40 min. Fluorescence was measured at 570 nm (excitation) and 610 nm (emission). Background readings from blank wells were subtracted. Cell viability was calculated relative to untreated controls. IC50 values were determined using dose–response curves. Controls included [^64Cu]Cu-NOTA-TP, [^64Cu]Cu-NOTA-PSMA, ^natCu-NOTA-TP-PSMA, and cisplatin (0–500 µM in 0.9% saline). All assays were performed in triplicate and all data presented in Results are the average of three independent experiments. TP conjugates were dissolved in 1% DMSO and diluted in saline. Inhibitory concentration 50 (IC50) values were calculated to quantify the effectiveness of the compounds."}, "[4]": {"test_system": "LNCaP cells", "assay": "Nuclear localization in LNCaP cells", "type": "cell-based", "experimental": "To assess nuclear localization, LNCaP and HEK-293 cells were incubated with 1 MBq of [^64Cu]Cu-NOTA-TP-PSMA 1 for 24, 48, and 72 h. Nuclear extraction was performed following a previously established protocol. Following incubation, cells were lysed and fractionated using cytoskeletal buffer to isolate nuclear components. Nuclear and cytoplasmic radioactivity were measured using a HIDEX automatic gamma counter. Data were used to evaluate time-dependent nuclear accumulation of the tracer."}, "[5]": {"test_system": "LNCaP cells", "type": "cell-based", "conditions": "LNCaP, 24 h", "experimental": "as §2, §3"}, "[6]": {"assay": "In vitro plasma stability and plasma protein binding", "type": "in vitro ADME", "conditions": "mouse plasma, 37 °C, 24 h", "experimental": "The in vitro plasma stability of [^64Cu]Cu-NOTA-TP-PSMA 1 was evaluated by incubating […] of the radiolabeled compound (in 250 μL PBS) with 250 μL of freshly collected mouse plasma at 37 °C for up to 24 h. At predefined time points, (1 h, 4 h and 24 h) plasma proteins were precipitated by adding ethanol (1:1, v/v) in two successive steps, followed by vortexing (1 min) and centrifugation at 7000 rpm for 10 min. The resulting supernatant was subjected to ultracentrifugation to ensure complete removal of particulate matter.\nFor assessment of in vitro stability, the clarified supernatant was analyzed by radio-instant thin-layer chromatography (radio-iTLC) on C18 silica gel plates, using 0.1 M sodium citrate buffer (pH 5.5) as the mobile phase. Radiodetection was performed using an Instant Imager system (BioScan, Washington, DC, USA). Free [^64Cu]Cu(OAc)2 and intact [^64Cu]Cu-NOTA-TP-PSMA served as controls to facilitate peak identification. Under these chromatographic conditions, the radiolabeled complex remained at the origin, while free copper migrated with the solvent front (Figure S5).\nTo quantify the extent of protein binding, radioactivity in both the protein pellet and the supernatant was measured using a dose calibrator. The percentage of protein-bound radioactivity was calculated by comparing the activity in the precipitated fraction relative to the total recovered activity. […]"}},
  "data": [
    {"smiles": "O=C(O)CC[C@H](NC(=O)N[C@@H](CCCCNC(=O)[C@@H](Cc1ccc2ccccc2c1)NC(=O)C1CCC(CNC(=O)C(CCCCNC(=O)c2cc3[n+]4c(c2)-c2cccc[n+]2[Pt-2]4([Cl])[n+]2ccccc2-3)NC(=O)COCCOCCNC(=O)CN2CCN3CCN(CC2)CC(=O)[O][64Cu][O]C(=O)C3)CC1)C(=O)O)C(=O)O", "note": "(stereo partly drawn) [[^64Cu]Cu-NOTA-TP-PSMA 1]", "values": [
      {"measurement": "Retained activity", "setting": "[1]; 0 h after medium replacement", "result": "100 ± 0", "unit": "%CPM/106 cells"},
      {"measurement": "Retained activity", "setting": "[1]; 1 h", "result": "97.8 ± 4.3", "unit": "%CPM/106 cells"},
      {"measurement": "Retained activity", "setting": "[1]; 2 h", "result": "62.6 ± 18.6", "unit": "%CPM/106 cells"},
      {"measurement": "Retained activity", "setting": "[1]; 4 h", "result": "41.5 ± 9.9", "unit": "%CPM/106 cells"},
      {"measurement": "Retained activity", "setting": "[1]; 24 h", "result": "17.1 ± 1.9", "unit": "%CPM/106 cells"},
      {"measurement": "Retained activity", "setting": "[2]; 0 h after medium replacement", "result": "100 ± 0", "unit": "%CPM/106 cells"},
      {"measurement": "Retained activity", "setting": "[2]; 1 h", "result": "85.36 ± 11.10", "unit": "%CPM/106 cells"},
      {"measurement": "Retained activity", "setting": "[2]; 2 h", "result": "71.36 ± 13.48", "unit": "%CPM/106 cells"},
      {"measurement": "Retained activity", "setting": "[2]; 4 h", "result": "67.8 ± 9.3", "unit": "%CPM/106 cells"},
      {"measurement": "Retained activity", "setting": "[2]; 24 h", "result": "51.7 ± 9.4", "unit": "%CPM/106 cells"},
      {"measurement": "EC50", "setting": "[3]", "result": "> 250", "unit": "nM"},
      {"measurement": "nuclear uptake fold difference LNCaP vs HEK-293", "setting": "[4]; 24 h", "result": 84, "unit": "fold"},
      {"measurement": "nuclear uptake in LNCaP cells", "setting": "[4]; 24 h", "result": "~ 7 % CPM/10^6 cells"},
      {"measurement": "nuclear uptake fold difference LNCaP vs HEK-293", "setting": "[4]; 48 h", "result": 36, "unit": "fold"},
      {"measurement": "nuclear uptake fold difference LNCaP vs HEK-293", "setting": "[4]; 72 h", "result": 1.8, "unit": "fold"},
      {"measurement": "fold higher nuclear uptake than monomer 2", "setting": "[4]; LNCaP, 24 h", "result": "~ 13 fold"},
      {"measurement": "fold higher nuclear uptake than monomer 3", "setting": "[4]; LNCaP, 24 h", "result": "~ 16 fold"},
      {"measurement": "Nuclear uptake LNCaP", "setting": "[4]; Table S4, 24 h", "result": "6.96 ± 1.97", "unit": "%ID/10⁶ cells"},
      {"measurement": "Nuclear uptake LNCaP", "setting": "[4]; Table S4, 48 h", "result": "5.66 ± 2.09", "unit": "%ID/10⁶ cells"},
      {"measurement": "Nuclear uptake LNCaP", "setting": "[4]; Table S4, 72 h", "result": "1.53 ± 0.38", "unit": "%ID/10⁶ cells"},
      {"measurement": "fold more potent than monomer 2", "setting": "[5]", "result": "~ 5 fold"},
      {"measurement": "fold more potent than monomer 3", "setting": "[5]", "result": "~ 16 fold"},
      {"measurement": "free 64Cu2+ in protein-free supernatant (radio-iTLC)", "setting": "[6]", "result": "no evidence of free ^64Cu^2+"},
      {"measurement": "total radioactivity bound to plasma proteins", "setting": "[6]", "result": "approximately 91%"}
    ]}
  ]
}
